Experimental data published in US8003658B2, “Quinazoline derivatives for inhibiting cancer cell growth and method for the preparation thereof” (Hanmi Holdings Co., Ltd., priority 2004, dated 2011).
Read-outs that look alike come from different tables or passages of the source.

Experiments:
[1] = target: EGFR (EGFR type 1 kinase) (Homo sapiens, UniProt P00533); assay: Inhibition of EGFR enzyme (fluorescence polarization kinase assay)
Protocol: 10 μl of EGFR (EGFR type 1 kinase) was added to each well of a 96-well microplate.
SK-Br3 (ATCC: HTB-30) = assay: Test of cancer cell growth inhibition (SRB), SK-Br3; settings: read-out: IC50 SK-Br-3
A431 (ATCC: CRL-1555) = assay: Test of cancer cell growth inhibition (SRB), A431; settings: read-out: IC50 A431
SW-620 (ATCC: CCL-227) = assay: Test of cancer cell growth inhibition (SRB), SW-620; settings: read-out: IC50 SW-620
[2] = SW-620 not having overexpressed EGFR and Erb-B2, 72 hours, SRB
[3] = Erb-B2 overexpressed SK-Br3, 72 hours, SRB
[4] = EGFR overexpressed A431, 72 hours, SRB

Chain of EGFR (EGFR type 1 kinase) (P00533 25-1210, species assumed): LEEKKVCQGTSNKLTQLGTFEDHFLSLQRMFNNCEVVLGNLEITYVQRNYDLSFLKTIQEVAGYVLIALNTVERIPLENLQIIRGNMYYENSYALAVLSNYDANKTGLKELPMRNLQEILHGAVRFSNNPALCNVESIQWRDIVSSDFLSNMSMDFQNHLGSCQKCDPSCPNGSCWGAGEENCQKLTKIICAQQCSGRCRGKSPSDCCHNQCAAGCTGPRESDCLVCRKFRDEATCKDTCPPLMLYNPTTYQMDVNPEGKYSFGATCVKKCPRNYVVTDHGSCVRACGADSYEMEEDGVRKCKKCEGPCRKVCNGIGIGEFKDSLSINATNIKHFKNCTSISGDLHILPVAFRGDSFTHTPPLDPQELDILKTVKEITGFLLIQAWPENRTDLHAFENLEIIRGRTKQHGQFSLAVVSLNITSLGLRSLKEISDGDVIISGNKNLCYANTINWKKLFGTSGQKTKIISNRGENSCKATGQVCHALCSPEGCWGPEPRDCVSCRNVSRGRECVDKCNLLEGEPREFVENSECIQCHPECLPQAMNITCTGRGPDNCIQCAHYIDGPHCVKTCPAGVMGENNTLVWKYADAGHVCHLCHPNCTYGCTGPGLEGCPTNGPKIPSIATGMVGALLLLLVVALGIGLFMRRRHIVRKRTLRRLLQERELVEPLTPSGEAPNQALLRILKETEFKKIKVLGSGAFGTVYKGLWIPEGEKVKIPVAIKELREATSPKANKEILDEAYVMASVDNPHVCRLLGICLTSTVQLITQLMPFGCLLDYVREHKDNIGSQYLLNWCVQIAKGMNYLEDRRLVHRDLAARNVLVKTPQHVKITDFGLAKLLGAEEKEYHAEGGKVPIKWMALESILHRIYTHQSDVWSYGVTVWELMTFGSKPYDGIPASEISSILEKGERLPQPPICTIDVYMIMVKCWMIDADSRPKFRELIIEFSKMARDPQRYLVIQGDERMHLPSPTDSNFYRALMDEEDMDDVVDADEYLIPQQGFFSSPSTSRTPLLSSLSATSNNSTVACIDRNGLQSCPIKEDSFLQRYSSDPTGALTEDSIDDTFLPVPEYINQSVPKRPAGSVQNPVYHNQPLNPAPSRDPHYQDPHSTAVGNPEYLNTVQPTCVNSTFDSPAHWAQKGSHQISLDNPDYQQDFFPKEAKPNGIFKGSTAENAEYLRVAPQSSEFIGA

Structure (SMILES)	IC50 [1]	IC50 (SK-Br3 (ATCC: HTB-30); Homo sapiens, SK-BR-3, 72 h)	IC50 (A431 (ATCC: CRL-1555); Homo sapiens, A-431, 72 h)	IC50 (SW-620 (ATCC: CCL-227); [2])	IC50 (SK-Br3 (ATCC: HTB-30); [3])	IC50 (A431 (ATCC: CRL-1555); [4])	IC50 (SW-620 (ATCC: CCL-227); Homo sapiens, SW-620, 72 h)
COCC(=O)NCCC(=O)Nc1ccc2ncnc(Nc3ccc(OCc4cccc(F)c4)c(Cl)c3)c2c1 [Example 20-2, N-{4-[3-chloro-4-(3-fluoro-benzyloxy)-phenylamino]-quinazolin-6-yl}-3-(2-methoxy-acetylamino)-propionamide]	30 nM	151 nM	948 nM				
CC=CC=CC(=O)NCCC(=O)Nc1ccc2ncnc(Nc3ccc(OCc4cccc(F)c4)c(Cl)c3)c2c1 [Example 24, hexa-2,4-dienonylic acid (2-{4-[3-chloro-4-(3-fluoro-benzyloxy)-phenylamino]-quinazolin-6-ylcarbamoyl}-ethyl)-amide]				> 10000 nM	105 nM	232 nM	
O=C(CCNC(=O)C1=CCCC1)Nc1ccc2ncnc(Nc3ccc(OCc4cccc(F)c4)c(Cl)c3)c2c1 [Example 25, cyclopent-1-en carboxylic acid (2-{4-[3-chloro-4-(3-fluoro-benzyloxy)-phenylamino]-quinazolin-6-ylcarbamoyl}-ethyl)-amide]		133 nM	138 nM				> 10000 nM
CC#CC(=O)NCCC(=O)Nc1ccc2ncnc(Nc3ccc(OCc4cccc(F)c4)c(Cl)c3)c2c1 [Example 27, but-2-ynoylic acid(2-{4-[3-chloro-4-(3-fluoro-benzyloxy)-phenylamino]-quinazolin-6-ylcarbamoyl}-ethyl)-amide]				> 10000 nM	10 nM	85 nM	
CC=CC(=O)NCCC(=O)Nc1ccc2ncnc(Nc3ccc(OCc4cccc(F)c4)c(Cl)c3)c2c1 [Example 28, but-2-enonylic acid (2-{4-[3-chloro-4-(3-fluoro-benzyloxy)-phenylamino]-quinazolin-6-ylcarbamoyl}-ethyl)-amide]				> 10000 nM	65 nM	197 nM	
CC(C)=CC(=O)NCCC(=O)Nc1ccc2ncnc(Nc3ccc(OCc4cccc(F)c4)c(Cl)c3)c2c1 [Example 29, 3-methyl-but-2-enonylic acid (2-{4-[3-chloro-4-(3-fluoro-benzyloxy)-phenylamino]-quinazolin-6-ylcarbamoyl}-ethyl)-amide]				> 10000 nM	54 nM	310 nM	
C=C(C)C(=O)NCCC(=O)Nc1ccc2ncnc(Nc3ccc(OCc4cccc(F)c4)c(Cl)c3)c2c1 [Example 30, N-(2-{4-[3-chloro-4-(3-fluoro-benzyloxy)-phenylamino]-quinazolin-6-ylcarbamoyl}-ethyl)-2-methyl-acrylamide]		38 nM	119 nM				> 10000 nM
COCC(=O)NCC(OC(C)=O)C(=O)Nc1ccc2ncnc(Nc3ccc(OCc4cccc(F)c4)c(Cl)c3)c2c1 (stereo not drawn) [Example 39-2, acetic acid 1-{4-[3-chloro-4-(3-fluoro-benzyloxy)-phenylamino]-quinazolin-6-ylcarbamoyl}-2-(2-methoxy-acetylamino)-ethylester]		45 nM	482 nM				> 10000 nM
COCC(=O)NCC(O)C(=O)Nc1ccc2ncnc(Nc3ccc(OCc4cccc(F)c4)c(Cl)c3)c2c1 (stereo not drawn) [Example 40, N-{4-[3-chloro-4-(3-fluoro-benzyloxy)-phenylamino]-quinazolin-6-yl}-2-hydroxyl-3-(2-methoxy-acetylamino)-propionamide]		84 nM	327 nM				> 10000 nM
COCC(=O)NCC(C)C(=O)Nc1ccc2ncnc(Nc3ccc(OCc4cccc(F)c4)c(Cl)c3)c2c1 (stereo not drawn) [Example 42-2, N-{4-[3-chloro-4-(3-fluoro-benzyloxy)-phenylamino]-quinazolin-6-yl}-3-(2-methoxy-acetylamino)-2-methyl-propionamide]		102 nM	340 nM				> 10000 nM
C=CC(=O)NCC(C)C(=O)Nc1ccc2ncnc(Nc3ccc(OCc4cccc(F)c4)c(Cl)c3)c2c1 (stereo not drawn) [Example 44, N-(2-{4-[3-chloro-4-(3-fluoro-benzyloxy)-phenylamino]-quinazolin-6-ylcarbamoyl}-propyl)-acrylamide]		6 nM	43 nM				> 10000 nM
C=CC(=O)NCCC(=O)Nc1ccc2ncnc(Nc3ccc(F)c(Cl)c3)c2c1 [Example 54, N-{2-[4-(3-chloro-4-fluoro-phenylamino)-quinazolin-6-ylcarbamoyl]-ethyl}-acrylamide]		46 nM	321 nM				> 10000 nM
O=C(CCl)NCCC(=O)Nc1ccc2ncnc(Nc3ccc(OCc4cccc(F)c4)c(Cl)c3)c2c1 [Example 61, 3-(2-chloro-acetylamide)-N-{4-[3-chloro-4-(3-fluoro-benzyloxy)-phenylamino]-quinazolin-6-yl}-propionamide]				> 10000 nM	98 nM	168 nM	
CC(C)(C)OC(=O)NCCC(=O)Nc1ccc2ncnc(Nc3ccc4c(cnn4Cc4ccccc4)c3)c2c1 [Example 77, {2-[4-(1-benzyl-1-indazol-5-ylamino)-quinazolin-6-ylcarbamoyl]-ethyl}-carbamic acid t-butylester]				> 10000 nM	86 nM	208 nM	
C=CC(=O)NCCC(=O)Nc1ccc2ncnc(Nc3cncn3Cc3ccccc3)c2c1 [Example 79, N-{2-[4-(1-benzyl-1H-imidazol-5-ylamino)-quinazolin-6-ylcarbamoyl]-ethyl}-acrylamide]		3 nM	65 nM				> 10000 nM
C=CC(=O)NCCC(=O)Nc1cc2c(Nc3ccc(OCc4cccc(F)c4)c(Cl)c3)ncnc2cc1OCCCN1CCOCC1 [Example 85-2, N-{2-[4-[3-chloro-4-(3-fluoro-benzyloxy)phenylamino]-7-(3-morpholin-4-yl-propoxy)-quinazolin-6-ylcarbamoyl]-ethyl}-acrylamide]		3 nM	12 nM				> 10000 nM
COCC(=O)NCCCC(=O)Nc1ccc2ncnc(Nc3ccc(OCc4cccc(F)c4)c(Cl)c3)c2c1 [Example 87-2, N-{4-[3-chloro-4-(3-fluoro-benzyloxy)-phenylamino]-quinazolin-6-yl}-4-(2-methoxy-acetylamino)-butyramide]		35 nM	95 nM				> 10000 nM
C=CC(=O)NCCCC(=O)Nc1ccc2ncnc(Nc3ccc(OCc4cccc(F)c4)c(Cl)c3)c2c1 [Example 89, 4-acryloylamino-N-{4-[3-chloro-4-(3-fluoro-benzyloxy)-phenylamino]-quinazolin-6-yl}-butyramide]		19 nM	173 nM				> 10000 nM
N#CCC(=O)NCCCC(=O)Nc1ccc2ncnc(Nc3ccc(OCc4cccc(F)c4)c(Cl)c3)c2c1 [Example 93, N-{4-[3-chloro-4-(3-fluoro-benzyloxy)-phenylamino]-quinazolin-6-yl}-4-(2-cyano-acetylamino)-butyramide]		33 nM	324 nM				> 10000 nM
C=CC(=O)NCCCC(=O)Nc1ccc2ncnc(Nc3ccc(Oc4ccc(C)nc4)c(C)c3)c2c1 [Example 101, 4-acryloylamino-N-{4-[3-methyl-4-(6-methyl-pyridin-3-yloxy)-phenylamino]-quinazolin-6-yl}-butyramide]		21 nM	786 nM				> 10000 nM
O=C(CCl)NCCCC(=O)Nc1ccc2ncnc(Nc3ccc(OCc4cccc(F)c4)c(Cl)c3)c2c1 [Example 102, 4-(2-chloro-acetylamino)-N-{4-[3-chloro-4-(3-fluoro-benzyloxy)-phenylamino]-quinazolin-6-yl}-butyramide]		80 nM	345 nM				> 10000 nM
O=C(CN1CCOCC1)NCCCC(=O)Nc1ccc2ncnc(Nc3ccc(OCc4cccc(F)c4)c(Cl)c3)c2c1 [Example 103, N-{4-[3-chloro-4-(3-fluoro-benzyloxy)-phenylamino]-quinazolin-6-yl}-4-(2-morpholin-4-yl-acetylamino)-butyramide]		42 nM	227 nM				> 10000 nM
CN(C)CC(=O)NCCCC(=O)Nc1ccc2ncnc(Nc3ccc(OCc4cccc(F)c4)c(Cl)c3)c2c1 [Example 104, N-{4-[3-chloro-4-(3-fluoro-benzyloxy)-phenylamino]-quinazolin-6-yl}-4-(2-dimethylamino-acetylamino)-butyramide]		22 nM	254 nM				> 10000 nM
COCC(=O)NCCCCC(=O)Nc1ccc2ncnc(Nc3ccc(OCc4cccc(F)c4)c(Cl)c3)c2c1 [Example 115-2, 5-(2-methoxy-acetylamino)-pentanoic acid {4-[3-chloro-4-(3-fluoro-benzyloxy)-phenylamino]-quinazolin-6-yl}-amide]		38 nM	117 nM				> 10000 nM
CSCC(=O)NCCC(=O)Nc1ccc2ncnc(Nc3ccc(OCc4cccc(F)c4)c(Cl)c3)c2c1 [Example 117, N-{4-[3-chloro-4-(3-fluoro-benzyloxy)-phenylamino]-quinazolin-6-yl}-3-(2-methanesulfanyl-acetylamino)-propionamide]				> 10000 nM	40 nM	336 nM	
CCNC(=O)NCCC(=O)Nc1ccc2ncnc(Nc3ccc(OCc4cccc(F)c4)c(Cl)c3)c2c1 [Example 123, N-{4-[3-chloro-4-(3-fluoro-benzyloxy)-phenylamino]-quinazolin-6-yl}-3-(3-ethyl-ureido)-propionamide]		36 nM	240 nM				> 10000 nM
C#Cc1cccc(Nc2ncnc3cc(OCCOC)c(OCCOC)cc23)c1 [Tarceva, reference compound]		891 nM	59 nM				> 10000 nM
